Assay results reported in PubChem BioAssay (NCI).
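Five compound concentrations were applied to cells in 96-well plates for 48 hours; endpoints were derived by simple linear interpolation of the resulting dose-response curve. Abbreviation: GI50, concentration required for 50% inhibition of growth. Definition used: TGI = concentration required for complete inhibition of growth.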

Tests used:
Assay in all cases: NCI anticancer screen, dose series, 48 h
[1] = tested on: SK-MEL-28 melanoma
[2] = tested on: SW-620 colon
[3] = tested on: NCI-H522 lung
[4] = tested on: SF-268 CNS
[5] = tested on: OVCAR-5 ovarian
[6] = tested on: HCT-116 colon
[7] = tested on: NCI/ADR-RES ovarian
[8] = tested on: DMS 114 small cell lung
[9] = tested on: M19-MEL melanoma
[10] = tested on: DLD-1 colon
[11] = tested on: LXFL 529 NSCLC
[12] = tested on: KM20L2 colon

| SMILES | GI50 [1] | TGI [1] | GI50 [2] | TGI [2] | GI50 [3] | TGI [3] | GI50 [4] | TGI [4] | GI50 [5] | TGI [5] | GI50 [6] | TGI [6] | GI50 [7] | TGI [7] | TGI [8] | TGI [9] | TGI [10] | TGI [11] | TGI [12] |
| --- | --- | --- | --- | --- | --- | --- | --- | --- | --- | --- | --- | --- | --- | --- | --- | --- | --- | --- | --- |
| COC(=O)C1=C(C)NC(C)=C(C(=O)OC)C1/C=C(Cl)/C=C/c1ccccc1 | 17.1 µM | 35 µM | 37.3 µM | > 100 µM | 21.7 µM | 72 µM | 20.9 µM | 58.8 µM | 19.4 µM | 54.2 µM | 17.2 µM | 30.9 µM | 18.4 µM | 44.3 µM |  |  |  |  |  |
| O=C(O)c1cccc(N=Nc2c(S(=O)(=O)O)ccc3c2C(=O)c2ccccc2C3=O)c1O |  | > 100 µM |  | > 100 µM |  | > 100 µM |  | > 100 µM |  | > 100 µM |  | > 100 µM |  | > 100 µM |  |  |  |  |  |
| O=C(/C=C/c1cc([N+](=O)[O-])ccc1Cl)c1ccccc1 | 14.3 µM | 29 µM | 2.05 µM | 3.9 µM | 15 µM | 36.8 µM | 16.9 µM | 43.6 µM | 23.5 µM | 74.2 µM | 1.59 µM | 2.93 µM | 24.4 µM | 91.7 µM |  |  |  |  |  |
| Cc1c(COc2cc(OCc3cccc(C#N)c3)c(CN3C[C@H](O)C[C@@H]3C(=O)O)cc2Cl)cccc1-c1ccc2c(c1)OCCO2 | 13.3 µM | 26.1 µM | 16.7 µM | 31.5 µM | 19.8 µM | 42.5 µM | 21.1 µM | 42.6 µM | 17.3 µM | 31 µM | 1.96 µM | 4.18 µM | 47.5 µM | > 100 µM |  |  |  |  |  |
| Cc1cc(C)nc(NS(=O)(=O)c2ccc(Nc3c4ccc(Cl)cc4nc4c(C(=O)Nc5ccc(S(N)(=O)=O)cc5)cccc34)cc2)n1 |  | > 100 µM |  |  |  | 24.1 µM |  | > 100 µM |  | 28.8 µM |  | 30.2 µM |  |  | 65 µM | > 100 µM | 32 µM | > 100 µM | 33.1 µM |
| COc1cc2c3c(n(CCCI)c(=O)c2cc1OC)-c1cc2c(cc1C3=O)OCO2 | 52.1 µM | > 100 µM | 3.17 µM | > 100 µM | 8.32 µM | > 100 µM | 1.34 µM | > 100 µM | > 100 µM | > 100 µM | 2.6 µM | > 100 µM | 27.3 µM | > 100 µM |  |  |  |  |  |
| N#Cc1c(N)nc(N2CCOCC2)c(C#N)c1-c1cccnc1 | > 100 µM | > 100 µM | > 100 µM | > 100 µM | 22.3 µM | 81.7 µM | > 100 µM | > 100 µM | 25.7 µM | 73.5 µM | 86.6 µM | > 100 µM | 81.7 µM | > 100 µM |  |  |  |  |  |
| CC(=Nc1ccccc1)C1=C(O)C(Cc2ccccc2)NC1=O (stereo not given) | 0.0712 µM | > 100 µM | 0.0328 µM | > 100 µM | 0.0216 µM | 0.0645 µM | 0.0586 µM | > 76.2 µM | 0.0938 µM | > 100 µM | 0.0363 µM | 0.51 µM | 0.03 µM | 0.117 µM |  |  |  |  |  |
| Clc1ccc(C2SCc3nc4ccccc4n32)cc1Cl (stereo not given) |  | 25.4 µM |  | 28.6 µM |  | 25 µM |  | 37.6 µM |  | 22.8 µM |  | 26.2 µM |  |  | 36 µM |  | 25.2 µM | 24 µM |  |
